Earlier results as cited in US20230248672A1, “COMPOSITIONS COMPRISING GARDOS CHANNEL ANTAGONISTS AND THEIR USES” (ADIMABIO LLC, priority 2020, published 2023).
Values after ≈ are worked out from the molar mass of the structure shown.

Tests used:
Gardos channel = Gardos channel (Homo sapiens, UniProt O15554)
[1] = test system: sickle cell disease patients
[2] = rats, administered orally
[3] = not given; remark: listed apart in the source
[4] = not given; remark: listed apart in the source

SMILES | inhibition of the Gardos channel (Gardos channel; normal and sickle erythrocytes) | oral bioavailability | rate of sickle cell painful crises ([1]; compared to placebo) | tolerability ([1]; dose of 10 mg, sickle cell disease patients) | hemoglobin ([1]; sickle cell disease patients) | markers of hemolysis ([1]; sickle cell disease patients) | block of potassium efflux through the Gardos channel (Gardos channel; red blood cells) | time at which maximum concentration is attained [2] | log P [3] | aqueous solubility [4]
Clc1ccccc1C(c1ccccc1)(c1ccccc1)n1ccnc1 [Clotrimazole] | specific, potent inhibitor | – | – | – | – | – | – | – | – | –
NC(=O)C(c1ccccc1)(c1ccc(F)cc1)c1ccc(F)cc1 [senicapoc, 2,2-bis(4-fluorophenyl)-2-phenylacetamide] | – | 51% | no significant improvement | well tolerated | dose-dependent increase | decrease | selectively blocks | 4 h | 3.59 | 975 µg/mL (≈ 3.02 mM)
